The source of these data is ChEMBL document CHEMBL1201862, “PubChem BioAssay data set” (2004).

Molecules are shown by their SMILES. Active and inactive are the calls of the source.

The target of assay [1] is Homeodomain-interacting protein kinase 2 (Homo sapiens, UniProt Q9H2X6). Type of assay: functional.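 Also: measured within a kinome-wide kinase profiling panel, HIPK2 being one panel member.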
Assay [2] concerns the target cAMP-dependent protein kinase catalytic subunit alpha (Homo sapiens, UniProt P17612). The format is functional.
Assay [3] has as its target Mitogen-activated protein kinase kinase kinase kinase 4 (Homo sapiens, UniProt O95819). The format is functional.
Assay [4] concerns the target Interleukin-1 receptor-associated kinase 4 (Homo sapiens, UniProt Q9NWZ3). The format is functional.
Assay [5] addresses Glycogen synthase kinase-3 beta (Homo sapiens, UniProt P49841). The format is functional.
Assay [6] can be described thus: SAR analysis of small molecule activators of Apaf-1 using a LZ-Caspase-9/Caspase-3 Fluorescent Selectivity assay - Set 2. The format is functional. To be noted: read-out: EC50_Mean.
Assay [7] deals with T1, Apoptotic protease-activating factor 1 (Homo sapiens, UniProt O14727).
T1 sequence (O14727 whole entry): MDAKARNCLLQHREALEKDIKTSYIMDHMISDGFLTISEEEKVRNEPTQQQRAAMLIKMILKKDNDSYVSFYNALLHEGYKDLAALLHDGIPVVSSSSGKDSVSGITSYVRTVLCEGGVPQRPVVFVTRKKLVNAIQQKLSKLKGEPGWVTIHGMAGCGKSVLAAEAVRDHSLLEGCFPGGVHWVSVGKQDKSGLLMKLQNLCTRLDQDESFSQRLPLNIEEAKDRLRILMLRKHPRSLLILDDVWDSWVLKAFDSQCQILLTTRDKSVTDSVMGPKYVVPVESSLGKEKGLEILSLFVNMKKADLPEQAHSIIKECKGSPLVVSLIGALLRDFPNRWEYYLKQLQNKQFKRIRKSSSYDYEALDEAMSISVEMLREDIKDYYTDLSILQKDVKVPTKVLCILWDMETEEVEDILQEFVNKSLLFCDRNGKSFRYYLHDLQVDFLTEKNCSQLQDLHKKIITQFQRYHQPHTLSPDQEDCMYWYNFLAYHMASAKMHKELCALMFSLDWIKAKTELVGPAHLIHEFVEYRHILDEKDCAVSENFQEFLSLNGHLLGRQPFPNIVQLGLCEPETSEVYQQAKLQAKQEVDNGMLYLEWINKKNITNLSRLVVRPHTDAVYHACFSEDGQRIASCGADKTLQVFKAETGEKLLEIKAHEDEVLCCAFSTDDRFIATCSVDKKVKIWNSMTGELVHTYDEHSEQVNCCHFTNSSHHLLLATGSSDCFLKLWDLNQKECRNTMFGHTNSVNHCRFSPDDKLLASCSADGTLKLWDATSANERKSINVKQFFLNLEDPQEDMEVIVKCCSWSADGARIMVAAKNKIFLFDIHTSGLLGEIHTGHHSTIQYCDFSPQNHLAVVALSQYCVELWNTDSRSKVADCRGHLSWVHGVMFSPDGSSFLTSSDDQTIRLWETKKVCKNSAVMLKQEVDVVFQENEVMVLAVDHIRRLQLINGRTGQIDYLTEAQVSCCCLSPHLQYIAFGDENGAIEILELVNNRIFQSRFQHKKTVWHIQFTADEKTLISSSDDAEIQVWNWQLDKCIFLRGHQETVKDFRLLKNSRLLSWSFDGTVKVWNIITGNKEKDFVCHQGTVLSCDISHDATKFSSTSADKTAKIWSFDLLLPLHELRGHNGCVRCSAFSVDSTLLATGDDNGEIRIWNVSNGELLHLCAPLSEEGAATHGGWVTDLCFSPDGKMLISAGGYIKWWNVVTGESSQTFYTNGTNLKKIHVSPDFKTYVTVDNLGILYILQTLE
In words: SAR analysis of small molecule Activators of Apaf-1 in a Fluorescent assay - set 2. The conditions noted are these: read-out: EC50_Mean. Type of assay: functional.

Assay [8] has as its target G-protein coupled receptor 55 (Homo sapiens, UniProt Q9Y2T6). In words: selective activators of receptor GPR55 – imaging, U2OS cells, beta-arrestin-GFP redistribution, primary screen (AID 1961). The format is functional.
The target of assay [9] is T2, Botulinum neurotoxin type F (Clostridium botulinum, UniProt P30996). Nature of the assay: High-throughput multiplex microsphere dose response for inhibitors of toxin protease, specifically Botulinum neurotoxin light chain F protease, compounds from Cherry Pick 01. Type of assay: functional. To be noted: read-out: EC50_MICROM.
Assay [10] concerns the target T2, Botulinum neurotoxin type F. Nature of the assay: High-throughput multiplex microsphere dose response for inhibitors of toxin protease, specifically Botulinum neurotoxin light chain F protease, compounds from Cherry Pick 02. To be noted: read-out: EC50_MICROM. Type of assay: functional.
Assay [11] has as its target T3, Botulinum neurotoxin type A (Clostridium botulinum (strain Hall / ATCC 3502 / NCTC 13319 / Type A), UniProt P0DPI1). Nature of the assay: High-throughput multiplex microsphere dose response for inhibitors of toxin protease, specifically Botulinum neurotoxin light chain A protease, compounds from Powder Set 01. Type of assay: functional, Clostridium botulinum A str. ATCC 3502. The conditions noted are these: read-out: EC50_MICROM.

In assay [12] the target is T3, Botulinum neurotoxin type A. In words: High-throughput multiplex microsphere dose response for inhibitors of toxin protease, specifically Botulinum neurotoxin light chain A protease, compounds from Cherry Pick 02. The format is functional. The conditions noted are these: read-out: EC50_MICROM.
The target of assay [13] is Beta-lactamase (Pseudomonas aeruginosa, UniProt Q79MP6).
Assay [14] addresses T3, Botulinum neurotoxin type A. In words: High-throughput multiplex microsphere dose response for inhibitors of toxin protease, specifically Botulinum neurotoxin light chain A protease, compounds from Cherry Pick 01. To be noted: read-out: EC50_MICROM. The format is functional.
Assay [15] deals with Beta-lactamase (Salmonella choleraesuis (strain SC-B67), UniProt Q5J463).
The target in assay [16] is T3, Botulinum neurotoxin type A. Nature of the assay: Confirmatory FRET assay using full length substrates for Botulinum neurotoxin light chain A protease, with Powder Set01. Type of assay: functional.
Assay [17] concerns the target Cyclin-dependent kinase 9 (Homo sapiens, UniProt P50750). The format is functional.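 Also: value from the CDK9 entry of a kinome-spanning kinase panel.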
Assay [18] addresses Dual specificity protein kinase CLK4 (Homo sapiens, UniProt Q9HAZ1). Type of assay: functional.
Assay [19] concerns the target Platelet-derived growth factor receptor alpha (Homo sapiens, UniProt P16234). Nature of the assay: Navigating the Kinome. Panel member name: PDGFRA. The format is functional.
Assay [20] addresses Rho-associated protein kinase 1 (Homo sapiens, UniProt Q13464). Type of assay: functional.
The target in assay [21] is Vascular endothelial growth factor receptor 2 (Homo sapiens, UniProt P35968). Type of assay: functional.
The target of assay [22] is Dual specificity tyrosine-phosphorylation-regulated kinase 1B (Homo sapiens, UniProt Q9Y463). In words: Navigating the Kinome. Panel member name: DYRK1B. Type of assay: functional.
Assay [23] has as its target Cyclin-dependent kinase 8 (Homo sapiens, UniProt P49336). In words: Navigating the Kinome. Panel member name: CDK8. Type of assay: functional.
The nature of assay [24]: THP-1 cell cytotoxicity, cytotoxicity control, set 5 (AID 588443). The format is functional.
Assay [25] in a line: Vero cell viability loss – purified and synthesized compounds, set 6, cytotoxicity control for M. tuberculosis inhibitor project, dose response (AID 588445). The format is functional. To be noted: Mycobacterium tuberculosis.

T3 sequence (P0DPI1 2-448 limits assumed): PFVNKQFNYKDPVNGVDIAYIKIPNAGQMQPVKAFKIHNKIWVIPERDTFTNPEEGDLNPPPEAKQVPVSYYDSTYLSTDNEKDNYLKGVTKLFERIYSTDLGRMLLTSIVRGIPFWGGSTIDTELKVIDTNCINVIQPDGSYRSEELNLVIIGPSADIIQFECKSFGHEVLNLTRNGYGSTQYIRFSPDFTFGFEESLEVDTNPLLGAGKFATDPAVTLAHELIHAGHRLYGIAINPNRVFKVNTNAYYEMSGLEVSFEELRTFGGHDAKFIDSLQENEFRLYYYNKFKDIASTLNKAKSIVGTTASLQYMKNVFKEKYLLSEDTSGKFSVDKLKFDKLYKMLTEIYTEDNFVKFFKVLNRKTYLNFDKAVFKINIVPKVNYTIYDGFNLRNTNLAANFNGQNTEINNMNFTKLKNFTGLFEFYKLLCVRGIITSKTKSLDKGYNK
T2 sequence (P30996 1-436 limits assumed): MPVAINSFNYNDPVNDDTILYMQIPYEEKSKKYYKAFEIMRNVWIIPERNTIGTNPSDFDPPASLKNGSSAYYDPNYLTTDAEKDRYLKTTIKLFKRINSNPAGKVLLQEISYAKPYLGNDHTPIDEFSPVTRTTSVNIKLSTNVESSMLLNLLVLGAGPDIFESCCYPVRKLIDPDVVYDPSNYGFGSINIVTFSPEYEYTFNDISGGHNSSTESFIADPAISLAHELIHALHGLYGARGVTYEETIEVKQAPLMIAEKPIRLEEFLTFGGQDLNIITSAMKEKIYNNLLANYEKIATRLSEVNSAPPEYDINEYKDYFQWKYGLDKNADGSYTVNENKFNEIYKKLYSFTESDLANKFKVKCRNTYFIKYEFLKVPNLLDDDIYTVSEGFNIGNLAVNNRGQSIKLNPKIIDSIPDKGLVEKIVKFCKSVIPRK
Chain of Interleukin-1 receptor-associated kinase 4 (Q9NWZ3 whole entry): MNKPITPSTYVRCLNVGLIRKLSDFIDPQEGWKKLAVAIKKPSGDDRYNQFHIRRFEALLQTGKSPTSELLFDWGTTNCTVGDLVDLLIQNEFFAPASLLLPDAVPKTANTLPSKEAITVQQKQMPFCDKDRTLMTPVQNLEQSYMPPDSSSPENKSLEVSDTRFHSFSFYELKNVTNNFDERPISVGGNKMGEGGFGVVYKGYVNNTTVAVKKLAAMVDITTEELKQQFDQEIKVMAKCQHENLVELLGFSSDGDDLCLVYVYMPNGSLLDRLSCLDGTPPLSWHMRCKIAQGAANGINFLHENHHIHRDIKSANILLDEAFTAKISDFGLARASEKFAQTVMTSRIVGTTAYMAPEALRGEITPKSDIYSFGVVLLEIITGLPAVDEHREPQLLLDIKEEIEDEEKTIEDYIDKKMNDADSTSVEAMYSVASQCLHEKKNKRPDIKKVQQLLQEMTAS
Chain of Homeodomain-interacting protein kinase 2 (Q9H2X6 whole entry): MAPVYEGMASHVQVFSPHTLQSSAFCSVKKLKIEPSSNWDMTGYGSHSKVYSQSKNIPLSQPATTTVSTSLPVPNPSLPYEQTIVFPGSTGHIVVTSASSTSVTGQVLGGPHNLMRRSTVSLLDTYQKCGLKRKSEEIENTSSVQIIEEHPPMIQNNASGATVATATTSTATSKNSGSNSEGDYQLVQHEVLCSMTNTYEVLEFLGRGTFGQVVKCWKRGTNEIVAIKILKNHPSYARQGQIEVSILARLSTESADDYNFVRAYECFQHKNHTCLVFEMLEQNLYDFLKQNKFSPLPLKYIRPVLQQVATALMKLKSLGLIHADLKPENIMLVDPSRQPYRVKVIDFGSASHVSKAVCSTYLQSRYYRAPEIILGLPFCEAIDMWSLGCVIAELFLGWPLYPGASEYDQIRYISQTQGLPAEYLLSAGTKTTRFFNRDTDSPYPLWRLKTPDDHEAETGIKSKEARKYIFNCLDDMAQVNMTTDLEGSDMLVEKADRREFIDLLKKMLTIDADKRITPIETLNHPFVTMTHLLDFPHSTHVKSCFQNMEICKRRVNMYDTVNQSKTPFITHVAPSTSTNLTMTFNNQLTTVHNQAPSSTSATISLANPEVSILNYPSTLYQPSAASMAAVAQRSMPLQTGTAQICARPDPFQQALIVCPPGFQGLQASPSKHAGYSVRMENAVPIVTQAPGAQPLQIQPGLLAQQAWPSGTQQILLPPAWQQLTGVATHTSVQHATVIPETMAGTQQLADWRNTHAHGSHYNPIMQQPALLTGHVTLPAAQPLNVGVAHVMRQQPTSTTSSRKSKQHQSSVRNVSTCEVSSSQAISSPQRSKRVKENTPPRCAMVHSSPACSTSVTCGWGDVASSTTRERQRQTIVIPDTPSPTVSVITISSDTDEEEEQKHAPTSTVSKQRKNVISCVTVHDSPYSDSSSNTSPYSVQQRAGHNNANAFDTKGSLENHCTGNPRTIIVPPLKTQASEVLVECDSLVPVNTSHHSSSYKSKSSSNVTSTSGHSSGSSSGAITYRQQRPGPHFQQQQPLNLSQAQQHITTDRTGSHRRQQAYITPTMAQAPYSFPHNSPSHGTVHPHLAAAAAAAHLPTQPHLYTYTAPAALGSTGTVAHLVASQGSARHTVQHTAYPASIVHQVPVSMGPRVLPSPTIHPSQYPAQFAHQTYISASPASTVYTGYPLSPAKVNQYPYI
Chain of Beta-lactamase (Pseudomonas aeruginosa, UniProt Q79MP6) (Q79MP6 whole entry): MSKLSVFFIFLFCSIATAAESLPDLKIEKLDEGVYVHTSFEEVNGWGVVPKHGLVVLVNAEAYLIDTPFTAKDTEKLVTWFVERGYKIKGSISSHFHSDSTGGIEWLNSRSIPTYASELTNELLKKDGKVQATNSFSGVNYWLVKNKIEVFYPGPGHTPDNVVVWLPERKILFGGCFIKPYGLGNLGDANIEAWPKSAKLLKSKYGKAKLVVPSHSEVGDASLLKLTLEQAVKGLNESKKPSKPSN
Chain of G-protein coupled receptor 55 (Q9Y2T6 whole entry): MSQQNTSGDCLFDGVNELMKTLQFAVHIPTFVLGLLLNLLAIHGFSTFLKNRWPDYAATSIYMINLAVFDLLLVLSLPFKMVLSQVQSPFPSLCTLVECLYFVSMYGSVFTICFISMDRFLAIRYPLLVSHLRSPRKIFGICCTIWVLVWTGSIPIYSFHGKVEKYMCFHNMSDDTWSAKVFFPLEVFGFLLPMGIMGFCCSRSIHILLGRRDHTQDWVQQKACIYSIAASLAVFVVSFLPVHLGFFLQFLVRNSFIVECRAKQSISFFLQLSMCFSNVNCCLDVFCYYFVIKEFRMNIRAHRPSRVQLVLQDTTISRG
Chain of Dual specificity protein kinase CLK4 (Q9HAZ1 whole entry): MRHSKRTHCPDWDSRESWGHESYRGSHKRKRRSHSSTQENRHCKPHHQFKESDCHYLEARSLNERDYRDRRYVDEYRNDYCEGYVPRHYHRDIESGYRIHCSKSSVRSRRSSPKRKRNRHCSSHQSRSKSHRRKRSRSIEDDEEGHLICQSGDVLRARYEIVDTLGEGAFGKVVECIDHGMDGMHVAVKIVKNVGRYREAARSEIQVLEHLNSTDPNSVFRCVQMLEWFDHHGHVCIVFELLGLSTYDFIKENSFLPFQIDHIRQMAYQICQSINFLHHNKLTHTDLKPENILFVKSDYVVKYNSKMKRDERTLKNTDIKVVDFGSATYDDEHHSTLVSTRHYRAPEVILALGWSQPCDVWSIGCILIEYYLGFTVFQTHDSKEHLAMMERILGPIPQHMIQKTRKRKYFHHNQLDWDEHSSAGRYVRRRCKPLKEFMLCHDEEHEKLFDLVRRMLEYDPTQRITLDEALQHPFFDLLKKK
Chain of Vascular endothelial growth factor receptor 2 (P35968 whole entry): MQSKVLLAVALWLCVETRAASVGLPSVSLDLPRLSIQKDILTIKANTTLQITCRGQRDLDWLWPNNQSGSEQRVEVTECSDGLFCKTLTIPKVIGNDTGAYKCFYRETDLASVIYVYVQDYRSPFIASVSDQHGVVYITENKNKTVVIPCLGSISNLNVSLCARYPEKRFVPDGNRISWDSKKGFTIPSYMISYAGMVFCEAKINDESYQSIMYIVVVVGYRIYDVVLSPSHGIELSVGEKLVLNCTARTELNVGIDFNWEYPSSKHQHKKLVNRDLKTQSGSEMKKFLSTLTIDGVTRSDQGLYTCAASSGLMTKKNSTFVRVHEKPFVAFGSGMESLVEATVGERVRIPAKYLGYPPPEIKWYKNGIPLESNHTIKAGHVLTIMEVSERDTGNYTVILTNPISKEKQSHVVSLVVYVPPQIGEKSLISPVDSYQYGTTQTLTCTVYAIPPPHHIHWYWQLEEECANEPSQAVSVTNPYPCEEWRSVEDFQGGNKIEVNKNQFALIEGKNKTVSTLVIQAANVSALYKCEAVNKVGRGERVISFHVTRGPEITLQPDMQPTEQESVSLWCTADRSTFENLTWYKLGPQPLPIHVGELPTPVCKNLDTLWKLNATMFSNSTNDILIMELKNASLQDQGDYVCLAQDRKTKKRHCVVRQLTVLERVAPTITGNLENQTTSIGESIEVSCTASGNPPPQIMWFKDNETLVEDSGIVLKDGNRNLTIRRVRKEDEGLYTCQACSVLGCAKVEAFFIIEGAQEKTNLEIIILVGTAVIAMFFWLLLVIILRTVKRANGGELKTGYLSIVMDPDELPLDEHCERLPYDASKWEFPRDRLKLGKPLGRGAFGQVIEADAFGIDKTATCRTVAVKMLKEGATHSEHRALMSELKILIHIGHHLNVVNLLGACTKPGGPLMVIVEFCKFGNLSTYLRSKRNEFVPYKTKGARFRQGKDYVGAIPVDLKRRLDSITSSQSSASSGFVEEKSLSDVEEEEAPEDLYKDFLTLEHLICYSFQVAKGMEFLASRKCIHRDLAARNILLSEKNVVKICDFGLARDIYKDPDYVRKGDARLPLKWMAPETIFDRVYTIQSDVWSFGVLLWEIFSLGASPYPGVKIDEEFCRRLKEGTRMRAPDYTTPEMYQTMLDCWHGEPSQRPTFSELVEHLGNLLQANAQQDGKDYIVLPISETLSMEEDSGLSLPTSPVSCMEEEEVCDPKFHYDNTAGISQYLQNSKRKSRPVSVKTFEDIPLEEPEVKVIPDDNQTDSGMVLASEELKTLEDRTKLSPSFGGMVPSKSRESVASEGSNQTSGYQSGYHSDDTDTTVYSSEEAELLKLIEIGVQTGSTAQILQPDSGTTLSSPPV

Broadly, the Ki is the dissociation constant of the complex between target and ligand, obtained from inhibition or displacement. Regarding `CN(C)c1ccc(-c2c(-c3ccc4[nH]nc(N)c4c3)nnn2Cc2ccccc2)cc1`, the Ki was > 3.16 µM (inactive) in assay [1]; 0.631 µM (active) in assay [2]; 0.0794 µM (active) in [3]; > 10 µM (inactive) in assay [4]; 0.0251 µM (active) in assay [5].
As to `CC(Cn1cccn1)C(=O)O` (stereo unspecified), the EC50 in assay [6] and in assay [7] was > 100 µM (inactive) each time.
Broadly, the IC50 is the concentration that inhibits the measured activity by half. For `COc1ccccc1[N+]1=N[C-](c2ccc([N+](=O)[O-])cc2)CC1c1ccccc1` (stereo unspecified), the EC50 is < 0.5 µM (active) in assay [8]; 1.8 µM (active) in [9]; 0.4 µM (active) in assay [10]; 1.4 µM (active) in assay [11]; 1 µM (active) in [12]; 1.7 µM (active) in assay [14]. The EC50 in assay [16] was 0.2 µM (active). The IC50 in assay [13] and in assay [15] was > 59.6 µM (inactive) in each case.
For `c1ccc(C2CCc3[nH]ncc32)cc1` (stereo unspecified), the Ki in assay [17] is 31.6 µM (active); in assay [18] it was 12.6 µM (active); in assay [2] it was 39.8 µM (active); in assay [19], 79.4 µM (active); in assay [20], 20 µM (active); in [21] it was 50.1 µM (active). Besides, the Ki in assay [22] and in assay [23] was 39.8 µM (active) each time.
A word on the CC50: it is the concentration that lowers cell viability or growth by half. As for `CCC(C)NC(=O)CSc1nc2ccccc2c(=O)[nH]1` (stereo unspecified), the CC50 in [24] and in assay [25] was > 100 µM (active) throughout.
